Laboratory results taken from article doi:10.1101/2020.10.07.312850v1 (bioRxiv, 2020).
Non-standard residues stand in square brackets, D forms with d. Residues, ends and D or L forms follow the SMILES beside them. *: point of attachment. Palmitoyl = CCCCCCCCCCCCCCCC(=O)*

What was measured:
[1] = chemical penetration enhancers, cited from earlier work; for Solubility: solvent and source not given; for LogP: source not given
[2] = tested on: melanin; settings: 16 weeks of twice daily treatment; reference not given; cited from earlier work
[3] = tested on: mushroom tyrosinase; settings: cited from earlier work
[4] = Peptide human skin retention after 24 h; format: in vitro ADME
[5] = tested on: human tyrosinase; settings: cited from earlier work
[6] = In vitro skin permeation testing, Franz type diffusion cells; format: in vitro ADME; settings: 5% (w/v) in PG, human epidermis, Franz cell, 32 °C, 24 h

CC12CCC(CC1=O)C2(C)C (centres unmarked) [Camphor]
Solubility [1]: 1.1 mg/mL
LogP [1]: 2.1 ± 0.3

CC1CCC(C(C)C)C(O)C1 (centres unmarked) [Menthol]
Solubility [1]: 1.5 mg/mL
LogP [1]: 3.2 ± 0.2

YRSRKYSSWY [Native peptide, decapeptide-12]
Efficacy in reducing content of melanin [2]: more than 50%
Competitive inhibition compared with hydroquinone [3]: stronger competitive inhibition effect
Skin retention of peptide after 24 h ([4]; MN patch, human epidermis, Franz cell, 32 °C, 24 h, HPLC-UV 280 nm, triplicates): No peptides were detected
Competitive inhibition compared with hydroquinone [5]: stronger competitive inhibition effect

CCCCCCCC/C=C\CCCCCCCC(=O)O [Oleic acid]
Solubility [1]: 0.002 mg/mL
LogP [1]: 7.4 ± 0.2

CCCCCCCCCCCCCCCC(=O)N[C@@H](Cc1ccc(O)cc1)C(=O)N[C@@H](CCCNC(=N)N)C(=O)N[C@@H](CO)C(=O)N[C@@H](CCCNC(=N)N)C(=O)N[C@@H](CCCCN)C(=O)N[C@H](Cc1ccc(O)cc1)C(=O)N[C@@H](CO)C(=O)N[C@@H](CO)C(=O)N[C@@H](Cc1c[nH]c2ccccc12)C(=O)N[C@@H](Cc1ccc(O)cc1)C(N)=O [Palm-peptide] (Palmitoyl-YRSRK[dY]SSWY-NH2)
Effect of CPE on skin permeation ([6]; menthol): enhancing effect
Effect of CPE on skin permeation ([6]; oleic acid): inhibitory effects
Percentage of peptide retained inside skin (dose-normalised) ([4]; MN patch, human epidermis, 24 h): < 0.1%
Highest peptide concentration in skin ([4]; estimated from skin retention after 24 h): 9.0 µg/g
